For this test, the system named is Euphorbia heterophylla. The experiment in a line: Post-emergence herbicidal efficacy trials; expected efficacy by Colby method. The format is in vivo. The conditions noted are these: for Observed efficacy (%) of L-glufosinate ammonium (150 g a.i./ha): Table 11. The protocol: Methodology: Trials were conducted to evaluate the efficacy of the combinations comprising L-glufosinate ammonium and the additional herbicides on Euphorbia genus weeds.
The soil used was sandy clay loam-sand: 68.0%; silt: 8.0%; clay: 24.0%.
All treatments were in 4 replications per treatment with a spray volume of about 150 L/ha.
Efficacy Evaluation: The expected efficacy of the combination comprising L-glufosinate ammonium and additional herbicides was calculated using the well-established Colby method.
In the Colby method, the expected (or predicted) response of a combination of herbicides is calculated by taking the product of the observed response for each individual component of the combination when applied alone, divided by 100, and subtracting this value from the sum of the observed response for each component when applied alone. An unexpected enhancement in efficacy of the combination is then determined by comparing the observed response of the combination to the expected (or predicted) response as calculated from the observed response of each individual component alone. If the observed response of the combination is greater than the expected (or predicted) response, or stated conversely, if the difference between the observed and expected response is greater than zero, then the combination is said to be synergistic or unexpectedly effective (Colby, S. R., Weeds, 1967 (15), p. 20-22). The Colby method requires only a single dose of each herbicide applied alone and the mixture of both doses. The formula used to calculate the expected efficacy (EE) which was compared with the observed efficacy (OE) to determine the efficacy of the present disclosure is explained hereinbelow:
The expected efficacy for a combination of two active ingredients is as follows:
wherein, • A=Observed efficacy of active ingredient A at the same concentration as used in the mixture. • B=Observed efficacy of the active ingredient B at the same concentration as used in the mixture.

Take `C[N+](C)(C)CCO.O=C([O-])COc1ccc(Cl)cc1Cl` [2,4-D choline, 2,4-dichlorophenoxyacetic acid (2,4-D) choline]: the “Observed efficacy (%) of 2,4-D choline (228 g a.i./ha)” value worked out at 30% (14 DAA) and 30% (21 DAA).

Consider `COc1c(Cl)ccc(Cl)c1C(=O)O` [Dicamba], for which the “Observed efficacy (%) of Dicamba (228 g a.i./ha)” value (7 DAA) worked out at 45% and the “Observed efficacy (%) of Dicamba (228 g a.i./ha)” value (14 DAA) was found to be 40%.

As for `COc1c(Cl)ccc(-c2nc(C(=O)OCc3ccccc3)c(Cl)c(N)c2F)c1F` [Florpyrauxifen-benzyl], the “Observed efficacy (%) of Florpyrauxifen-benzyl (15 g a.i./ha)” value is 65% (7 DAA) and 90% (14 DAA).

For `CP(=O)(O)CC[C@H](N)C(=O)O.N` [L-glufosinate ammonium], the “Observed efficacy (%) of L-glufosinate ammonium (Glufosinate-P-ammonium) (150 g a.i./ha)” value was found to be 95% (7 DAA, Table 6); 95% (7 DAA, Table 7); 95% (7 DAA, Table 8); 95% (7 DAA, Table 9); 95% (7 DAA, Table 10); 98% (14 DAA, Table 6). Also, the “Observed efficacy (%) of L-glufosinate ammonium (Glufosinate-P-ammonium) (150 g a.i./ha)” value was found to be 98% (14 DAA, Table 7); 93.5% (14 DAA, Table 9); 93.5% (14 DAA, Table 10); 88.8% (21 DAA, Table 9); 88.8% (21 DAA, Table 10); 93.1% (28 DAA, Table 9). Also, the “Observed efficacy (%) of L-glufosinate ammonium (Glufosinate-P-ammonium) (150 g a.i./ha)” value (28 DAA, Table 10) turned out to be 93.1%. Besides, the “Observed efficacy (%) of L-glufosinate ammonium (150 g a.i./ha)” value (14 DAA) is 98% and the “Observed efficacy (%) of L-glufosinate ammonium (150 g a.i./ha)” value (21 DAA) is given as 98%.

Consider `CSc1nnc(C(C)(C)C)c(=O)n1N` [Metribuzin], for which the “Observed efficacy (%) of Metribuzin (360 g a.i./ha)” value by setting is: (7 DAA) 41.9%; (14 DAA) 38.1%; (21 DAA) 29.4%; (28 DAA) 12.5%.

With `CCN(CC)C(=O)C(C)Oc1cccc2ccccc12` (stereo not drawn) [Napropamide], the “Observed efficacy (%) of Napropamide (675 g a.i./ha)” value reads like this: (7 DAA) 20%; (14 DAA) 10%; (21 DAA) 0%; (28 DAA) 0%.

As to `CCOc1cc(Oc2ccc(C(F)(F)F)cc2Cl)ccc1[N+](=O)[O-]` [Oxyfluorfen], where the note is “430 g a.i./ha, 7 DAA”, the “Observed efficacy (%) of Oxyfluorfen (430 g a.i./ha)” value is recorded as 75%.

The values are drawn from patent publication US20260240163A1, “HERBICIDAL COMBINATIONS AND A METHOD FOR CONTROLLING UNDESIRED VEGETATION” (UPL Mauritius Limited, priority 2022, published 2026).
